This note sets out measurements from patent US9399645B2, “Inhibitors of HIV replication” (Boehringer Ingelheim International GmbH, priority 2011, dated 2016).

Broadly, the EC50 is the concentration that produces a half-maximal response.

One data set relates to HIV-1. Nature of the data set: C8166 HIV-1 Luciferase Assay (EC50). Type of data set: cell-based. The following applies: Human immunodeficiency virus 1, C8166, 72 h. How it is done: C8166 HIV-1 Luciferase Assay (Ec50)
The assay used to measure inhibition of HIV replication is as described in WO 2004/050643, pages 73-75, incorporated herein by reference, with the following modifications:
Serial dilutions of HIV-1 inhibitors are prepared in complete media from DMSO stock solutions. Eleven serial dilutions of desired concentration are prepared in a 1 mL deep well titer plate (96 wells). The 12th well contains complete media with no inhibitor and serves as the positive control. All samples contain the same concentration of DMSO (<0.1% DMSO). Inhibitor is added, to triplicate wells, of a 96 well tissue culture treated clear view black microtiter plate (Corning Costar catalogue #3904). The total volume per well is 200 μL of media containing the cells and inhibitor. The last row is reserved for uninfected C8166 LTRIuc cells to serve as the background blank control and the first row is media alone.
Count C8166 LTRIuc cells and place in a minimal volume of complete RPMI 1640 in a tissue culture flask (ex. 30×10^6 cells in 10 mL media/25 cm^2 flask). Infect cells with HIV-1 at a moi of 0.005. Incubate cells for 1.5 h at 37° C. on a rotating rack in a 5% CO2 incubator. Resuspend cells in complete RPMI to give a final concentration of 25,000-cells/well. Add cells to wells of 96 well microtiter plate containing inhibitors. Add 25,000 uninfected C8166-LTRIuc cells/well in 200 μL complete RPMI to last row for background control. Incubate cells at 37° C. in 5% CO2 incubator for 3 days.
50 μL Steady Glo (luciferase substrate T112=5 hours Promega catalogue # E2520) is added to each well of the 96 well plate. The relative light units (RLU) of luciferase are determined using a luminescence plate reader. The calculated % inhibition values are used to determine EC50, slope factor (n) and maximum inhibition (Imax).

A short description of data set [1]: Caco-2 Permeability Assay. Type of data set: in vitro ADME. Conditions: human, apparent permeability A to B, compound at 10 μM, apical buffer pH 6.0, basolateral buffer pH 7.4, read-out: Papp (cm/sec, *10^−6). An excerpt: Caco-2 Permeability Assay Caco-2 cells are purchased from Cell Culture Services as frozen instant cells at a concentration of 1*10^7 cells/vial. DMEM+glutamax-I culture media is purchased from Gibco (10569). Fetal bovine serum (FBS) is purchased from HyClone (SH30396.03). Pennicilin/Streptomycin antibiotics are purchased from Gibco (15140). MEM non-essential amino acids are purchased from Gibco (11140). Hank's balanced salt solution (HBSS) is purchased from Gibco (14025). Bovine serum albumin (BSA) is purchased from Sigma-Aldrich (A7906). MES low moisture is purchased from Sigma-Aldrich (M3671). HEPES is purchased from Sigma-Aldrich (H3375). Dimethyl Sulfoxide (DMSO) is purchased from EMD (MX1457-6). Complete DMEM media is prepared by adding 1 L of FBS, 100 mL of pen/strep and 110 mL of MEM non essential amino acids to 10 L of DMEM+glutamax-I. […] Caco-2 cells are seeded on HTS transwell 24-well plates purchased from Corning (3397). These polycarbonate membrane plates have a diameter of […] and pore size of 0.4 μm. The Caco-2 cells vial is thawed in a 37° C. water bath until only a small ice pellet is left. The vial is then transferred to the laminar flow hood and its exterior is extensively washed with 70% ethanol. The total content of the vial (2 mL) is transferred into a 50 mL tube containing 38 mL of complete DMEM. […] The seeding is done by the Hamilton star robotic station which is controlled with the Venus program. Each well will receive 600 μL of complete DMEM on its basolateral side and 200 μL of cells on its apical side. Each well receives 50 000 cells. The 24-well plates are then returned to an automated Liconic STX110 incubator set at 37° C., 5% CO2 and 100% humidity. The culture media for the cells is changed every two days except on weekends. These cells are maintained for a period of two weeks prior to the running of the permeability assay. Permeability assays are usually performed between day 15 and 18 after the initial seeding. […] Controls for the assay are mannitol for tight junction determination and Digoxin for efflux transporter (p-glycoprotein) expression. On the day of the assay, each compound is diluted to 10 μM in the buffer (apical for A to B). 6 μl of the 5 mM DMSO stock is added to 3 mL of the buffer in a 24-well 10 mL deep plate covered with a lid. The plate containing all the diluted compounds is spun for 10 min at 3000 rpm in a Rotanta 46 RSC centrifuge from Hettich to remove unsoluble compound. This dilution is used to add at the start of the incubation. Each compound is tested in duplicate. On the day of the assay, the culture media of the 24-well plate is removed and replaced with warm HBSS. The HBSS is then also removed and the Apical and Basolatral buffer are added to their respective side of the transwells. These steps are performed by the Hamilton Star robotic station. The plate is then placed in a 37° C. incubator and is left to equilibrate for 30 min. After 30 min of incubation a background sample (25 μL from each well) is taken from the receiver side (Basolateral for A to B), and replenished with warm buffer. These samples and all others afterwards are kept in a 96-well 1 mL plate. To start the assay, the donor compartment (apical for A to B) is emptied and replaced with new buffer containing the compound at 10 μM. Once the compounds are added, the plate is returned to the 37° C. incubator and the timer is started. In order to determine how much compound is actually added to each well, a 50 μL sample is taken from each compound dilution, this sample is refered to as the load. These steps and the following are performed by the Tecan Freedom EVO robotic station controlled via the Gemini software. For A-to-B Assay: Samples (190 μL) are taken from each basolateral (receiver) chamber at time points 0, 60, 120 and 180 min or at time points 0, 30, 60 and 90 min. From the 190 μL taken, 50 μL is transferred to the receiving plate and 140 μL is discarded.
Background: Caco-2 cells form a polarised layer with tight junctions and transporters.

As for `CNc1ccc(-c2nc(=O)n(CCC3CCCO3)c3c2oc2ncc(-c4cnn(CC5CC5)c4)cc23)cn1` (stereo not drawn) [Compound 1068], in the data set with HIV-1, a half-maximal effect (EC50) was put at 78 nM. Moreover, the Papp A→B at 10 μM in data set [1] came to 8.1 ×10⁻⁶ cm/s.
The corresponding values for `Cn1cc(-c2cnc3oc4c(-c5cnn(C)c5)nc(=O)n(CCC5CCCCO5)c4c3c2)cn1` (stereo not drawn) [Compound 1074] are 90 nM and 11 ×10⁻⁶ cm/s.
The corresponding values for `CC[C@H]1C[C@@H](n2c(=O)nc(-c3cnn(C)c3)c3oc4cnc(-n5ccnc5)cc4c32)CCO1` [Compound 1090] are 160 nM and 8.7 ×10⁻⁶ cm/s.
In the data set with HIV-1, `CC[C@H]1C[C@@H](n2c(=O)nc(-c3cnn(C)c3)c3oc4cnc(-c5cnc(C)o5)cc4c32)CCO1` [Compound 1088] registered an EC50 of 36.2 nM. For the same compound, the Papp A→B at 10 μM in data set [1] was determined as 22.9 ×10⁻⁶ cm/s.
For `CC[C@@H]1C[C@H](n2c(=O)nc(-c3ccc(NC)nc3)c3oc4ccc(-c5cnn(C)c5)cc4c32)CO1` (racemic) [Compound 1037], in that order: 10.2 nM and 8.2 ×10⁻⁶ cm/s.
For `CC[C@H]1C[C@@H](n2c(=O)nc(-c3cnn(C)c3)c3oc4ccc(-c5cccnc5)nc4c32)CCO1` [Compound 1006], in that order: 7.4 nM and 18.1 ×10⁻⁶ cm/s.
For `C[C@@H]1C[C@H](n2c(=O)nc(-c3cnn(C)c3)c3oc4cnc(-c5cnn(C)c5)cc4c32)C[C@H](C)O1` [Compound 1084], in that order: 120 nM and 20.5 ×10⁻⁶ cm/s.
With `CC[C@H]1C[C@@H](n2c(=O)nc(-c3cnn(C)c3)c3oc4ccc(-c5cnn(C)c5)nc4c32)CCO1` [Compound 1001], the EC50 in the data set with HIV-1 came out at 4.9 nM. In addition, in data set [1], the Papp A→B at 10 μM turned out to be 20.4 ×10⁻⁶ cm/s.
For `CC[C@H]1C[C@@H](n2c(=O)nc(-c3cnn(C)c3)c3oc4cc(F)c(-c5ccc(CO)nc5)cc4c32)CCO1` [Compound 1045], in that order: 17.3 nM and 9.4 ×10⁻⁶ cm/s.
In turn, `CC[C@H]1C[C@@H](n2c(=O)nc(-c3cnn(C)c3)c3oc4cc(Cl)c(-c5cnn(C)c5)nc4c32)CCO1` [Compound 1022] came in with a 50% effective concentration (EC50) with HIV-1 of 3.2 nM. Further, the Papp A→B at 10 μM in data set [1] was 17.2 ×10⁻⁶ cm/s.
The corresponding values for `CC[C@H]1C[C@@H](n2c(=O)nc(-c3cnn(C)c3)c3oc4cc(Cl)c(-c5cnn(C)c5)cc4c32)CCO1` [Compound 1048] are 6 nM and 22.1 ×10⁻⁶ cm/s.
The corresponding values for `CC[C@H]1C[C@@H](n2c(=O)nc(-c3cnn(C)c3)c3oc4cc(C)c(-c5cnn(C)c5)cc4c32)CCO1` [Compound 1050] are 7.7 nM and 19.1 ×10⁻⁶ cm/s.
For `CC[C@H]1C[C@@H](n2c(=O)nc(-c3cnn(C)c3)c3oc4c(C#N)cc(-c5cn(C)cn5)cc4c32)CCO1` [Compound 1098], in that order: 9.9 nM and 5.3 ×10⁻⁶ cm/s.
In the case of `CNc1ccc(-c2nc(=O)n(CCC3CCCO3)c3c2oc2ccc(-c4cnco4)cc23)cn1` (stereo not drawn) [Compound 1027], a half-maximal response in the data set on HIV-1 (EC50) required 54 nM. The Papp A→B at 10 μM in data set [1] is 12.4 ×10⁻⁶ cm/s.
In the data set on HIV-1, `CC[C@H]1C[C@@H](n2c(=O)nc(-c3cnn(C)c3)c3oc4cc(C#N)c(-c5cnn(C)c5)cc4c32)C[C@@H](C)O1` [Compound 1053] yielded an EC50 of 43 nM. The Papp A→B at 10 μM in data set [1] amounted to 22.2 ×10⁻⁶ cm/s.
The corresponding values for `CC[C@H]1C[C@@H](n2c(=O)nc(-c3cnn(C)c3)c3oc4cc(C#N)c(-c5cnn(C)c5)nc4c32)C[C@@H](C)O1` [Compound 1017] are 22 nM and 23.6 ×10⁻⁶ cm/s.
In the data set with HIV-1, `CC[C@H]1C[C@@H](n2c(=O)nc(-c3ccc(NC)nc3)c3oc4cnc(-c5cnn(C)c5)cc4c32)CCO1` [Compound 1077] gave an EC50 of 6 nM. Also, in data set [1], the Papp A→B at 10 μM came to 14.7 ×10⁻⁶ cm/s.
For `CC[C@H]1C[C@@H](n2c(=O)nc(-c3cnn(CC)c3)c3oc4ncc(-c5cnn(CC)c5)cc4c32)CCO1` [Compound 1072], in that order: 110 nM and 21.4 ×10⁻⁶ cm/s.
